Experimental data taken from ChEMBL document CHEMBL5291721, “A preclinical secondary pharmacology resource illuminates target-adverse drug reaction associations of marketed drugs” (Nat Commun, 2023).

Key:
[1] = target: Beta-3 adrenergic receptor (Homo sapiens, UniProt P13945)
[2] = target: T1, Muscarinic acetylcholine receptor M2 (Homo sapiens, UniProt P08172)
T1 sequence (P08172 whole entry): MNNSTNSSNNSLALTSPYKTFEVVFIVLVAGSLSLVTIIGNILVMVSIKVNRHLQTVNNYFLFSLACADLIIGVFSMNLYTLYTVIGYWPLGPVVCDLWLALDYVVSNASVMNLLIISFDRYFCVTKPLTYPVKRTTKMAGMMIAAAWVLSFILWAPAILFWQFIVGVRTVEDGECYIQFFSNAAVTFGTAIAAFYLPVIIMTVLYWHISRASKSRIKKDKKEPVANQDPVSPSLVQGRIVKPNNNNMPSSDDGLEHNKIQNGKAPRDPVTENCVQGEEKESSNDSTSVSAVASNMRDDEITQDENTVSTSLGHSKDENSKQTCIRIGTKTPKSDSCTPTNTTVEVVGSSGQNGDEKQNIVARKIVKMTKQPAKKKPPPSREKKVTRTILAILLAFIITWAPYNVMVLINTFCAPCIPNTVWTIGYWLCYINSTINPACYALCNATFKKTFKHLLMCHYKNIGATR

[3] = target: T2, D(4) dopamine receptor (Homo sapiens, UniProt P21917)
T2 sequence (P21917 whole entry): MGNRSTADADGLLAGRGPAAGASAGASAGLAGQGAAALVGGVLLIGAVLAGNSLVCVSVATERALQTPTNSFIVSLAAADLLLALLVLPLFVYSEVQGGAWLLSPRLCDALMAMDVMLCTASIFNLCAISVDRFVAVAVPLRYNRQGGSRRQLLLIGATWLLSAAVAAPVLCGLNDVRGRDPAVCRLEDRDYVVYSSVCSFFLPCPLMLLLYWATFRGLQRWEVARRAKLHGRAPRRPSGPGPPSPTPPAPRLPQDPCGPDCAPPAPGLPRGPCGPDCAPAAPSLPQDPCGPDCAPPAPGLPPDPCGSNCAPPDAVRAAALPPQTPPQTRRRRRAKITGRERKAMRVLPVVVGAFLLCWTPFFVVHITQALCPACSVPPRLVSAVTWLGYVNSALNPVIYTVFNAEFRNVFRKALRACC

[4] = target: T3, Peroxisome proliferator-activated receptor gamma (Homo sapiens, UniProt P37231); type: functional
T3 sequence (P37231 whole entry): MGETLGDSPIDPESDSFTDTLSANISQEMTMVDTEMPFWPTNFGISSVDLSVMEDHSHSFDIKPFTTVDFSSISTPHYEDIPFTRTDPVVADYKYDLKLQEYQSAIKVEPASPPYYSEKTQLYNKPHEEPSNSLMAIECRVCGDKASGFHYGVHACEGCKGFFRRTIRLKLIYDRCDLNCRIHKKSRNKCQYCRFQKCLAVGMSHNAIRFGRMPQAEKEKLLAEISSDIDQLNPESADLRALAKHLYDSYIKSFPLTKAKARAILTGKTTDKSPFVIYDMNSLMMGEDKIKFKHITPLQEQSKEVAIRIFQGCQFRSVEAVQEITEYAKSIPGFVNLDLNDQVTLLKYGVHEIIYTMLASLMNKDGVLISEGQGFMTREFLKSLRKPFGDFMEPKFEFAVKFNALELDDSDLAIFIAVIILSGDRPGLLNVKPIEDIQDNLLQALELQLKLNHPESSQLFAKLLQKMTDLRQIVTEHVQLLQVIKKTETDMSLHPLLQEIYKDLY

[5] = target: T4, Adenosine receptor A1 (Homo sapiens, UniProt P30542)
T4 sequence (P30542 whole entry): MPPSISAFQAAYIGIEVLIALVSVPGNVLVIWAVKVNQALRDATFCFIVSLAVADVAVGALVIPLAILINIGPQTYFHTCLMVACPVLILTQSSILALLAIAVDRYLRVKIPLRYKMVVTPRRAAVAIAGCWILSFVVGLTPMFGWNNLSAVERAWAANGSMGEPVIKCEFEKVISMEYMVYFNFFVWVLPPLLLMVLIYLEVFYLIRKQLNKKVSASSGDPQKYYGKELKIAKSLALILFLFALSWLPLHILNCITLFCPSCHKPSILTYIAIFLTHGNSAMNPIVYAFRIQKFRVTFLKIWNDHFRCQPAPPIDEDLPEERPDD

[6] = target: T5, Androgen receptor (Rattus norvegicus, UniProt P15207); type: functional
T5 sequence (P15207 whole entry): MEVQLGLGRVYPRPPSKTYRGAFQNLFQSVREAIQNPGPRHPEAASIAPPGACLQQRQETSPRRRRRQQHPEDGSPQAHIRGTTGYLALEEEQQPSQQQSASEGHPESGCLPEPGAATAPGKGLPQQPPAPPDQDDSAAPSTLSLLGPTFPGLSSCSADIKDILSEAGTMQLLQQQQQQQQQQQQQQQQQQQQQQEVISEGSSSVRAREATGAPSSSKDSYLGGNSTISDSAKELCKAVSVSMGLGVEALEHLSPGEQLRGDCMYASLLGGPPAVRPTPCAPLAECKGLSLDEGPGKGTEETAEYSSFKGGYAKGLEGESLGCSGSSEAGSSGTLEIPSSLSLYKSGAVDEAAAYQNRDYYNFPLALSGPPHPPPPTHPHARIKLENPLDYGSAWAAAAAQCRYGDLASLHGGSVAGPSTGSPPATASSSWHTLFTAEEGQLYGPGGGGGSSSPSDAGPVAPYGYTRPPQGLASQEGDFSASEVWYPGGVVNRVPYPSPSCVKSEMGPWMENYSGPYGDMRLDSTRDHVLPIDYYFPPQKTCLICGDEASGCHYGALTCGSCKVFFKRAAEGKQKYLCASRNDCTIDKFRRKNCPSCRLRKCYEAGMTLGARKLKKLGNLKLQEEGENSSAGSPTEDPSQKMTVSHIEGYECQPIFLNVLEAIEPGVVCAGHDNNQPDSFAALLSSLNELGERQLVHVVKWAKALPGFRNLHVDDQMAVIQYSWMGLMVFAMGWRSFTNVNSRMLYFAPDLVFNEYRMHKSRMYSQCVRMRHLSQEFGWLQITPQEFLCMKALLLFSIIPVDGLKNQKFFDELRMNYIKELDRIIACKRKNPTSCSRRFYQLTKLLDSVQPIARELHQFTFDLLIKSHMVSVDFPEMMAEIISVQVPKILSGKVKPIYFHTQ
Note: assay procedure not described here.

Chain of Beta-3 adrenergic receptor (P13945 whole entry): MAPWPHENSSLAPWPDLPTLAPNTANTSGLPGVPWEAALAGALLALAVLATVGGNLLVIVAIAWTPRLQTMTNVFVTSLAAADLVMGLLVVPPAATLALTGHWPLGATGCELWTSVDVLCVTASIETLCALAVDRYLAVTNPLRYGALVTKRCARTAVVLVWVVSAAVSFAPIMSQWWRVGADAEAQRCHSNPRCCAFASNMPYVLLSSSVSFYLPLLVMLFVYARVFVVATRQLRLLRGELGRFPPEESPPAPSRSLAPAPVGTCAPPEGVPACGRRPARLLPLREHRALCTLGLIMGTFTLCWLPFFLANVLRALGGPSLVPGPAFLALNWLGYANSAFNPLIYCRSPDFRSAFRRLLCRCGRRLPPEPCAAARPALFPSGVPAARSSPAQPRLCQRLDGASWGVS

CCC[C@H](NC(=O)[C@@H]1[C@H]2CCC[C@H]2CN1C(=O)[C@@H](NC(=O)[C@@H](NC(=O)c1cnccn1)C1CCCCC1)C(C)(C)C)C(=O)C(=O)NC1CC1
AC50 [1]: > 30 µM | AC50 [2]: > 10 µM

CC(CCc1ccc(O)cc1)NCCc1ccc(O)c(O)c1 (stereo not given) [DOBUTAMINE]
AC50 [1]: > 30 µM | AC50 [3]: 2.42 µM | AC50 [2]: > 10 µM

C[C@]12CC[C@@H]3c4ccc(O)cc4C[C@@H](CCCCCCCCC[S+]([O-])CCCC(F)(F)C(F)(F)F)[C@H]3[C@@H]1CC[C@@H]2O (stereo not given in full) [FULVESTRANT]
AC50 [4]: > 30 µM

CC[C@@H]([C@H](C)O)n1ncn(-c2ccc(N3CCN(c4ccc(OC[C@@H]5CO[C@@](Cn6cncn6)(c6ccc(F)cc6F)C5)cc4)CC3)cc2)c1=O [POSACONAZOLE]
AC50 [5]: > 30 µM

OC1(c2ccc(Cl)cc2)c2ccccc2C2=NCCN21 (stereo not given) [MAZINDOL]
AC50 [1]: > 30 µM | AC50 [6]: > 30 µM | AC50 [3]: > 10 µM | AC50 [2]: > 10 µM

O=[N+]([O-])c1ccc(O)c2ncccc12 [NITROXOLINE]
AC50 [5]: > 30 µM

Oc1ccc2c(c1)CC[C@H](c1ccccc1)[C@@H]2c1ccc(OCCN2CCCC2)cc1 [LASOFOXIFENE]
AC50 [6]: 23 µM | AC50 [4]: > 30 µM

C[C@H](Cc1ccc(O)c(O)c1)[C@@H](C)Cc1ccc(O)c(O)c1 [MASOPROCOL]
AC50 [4]: > 30 µM

CC(C)COCC(CN(Cc1ccccc1)c1ccccc1)N1CCCC1 (stereo not given) [BEPRIDIL]
AC50 [1]: 11.9 µM | AC50 [4]: > 30 µM

CCC(=O)O[C@]1(C(=O)SCF)[C@H](C)C[C@H]2[C@@H]3C[C@H](F)C4=CC(=O)C=C[C@]4(C)[C@@]3(F)[C@@H](O)C[C@@]21C [FLUTICASONE PROPIONATE]
AC50 [1]: > 30 µM | AC50 [3]: > 10 µM | AC50 [2]: > 10 µM

CCC(C)C1(CC)C(=O)NC(=O)NC1=O (stereo not given) [BUTABARBITAL]
AC50 [6]: > 30 µM | AC50 [4]: > 30 µM

CN1CCN(C2=Nc3ccccc3Oc3ccc(Cl)cc32)CC1 [LOXAPINE]
AC50 [1]: > 30 µM | AC50 [3]: 0.0144 µM

CN(C)CCCNc1c2ccccc2nc2cccc([N+](=O)[O-])c12 [NITRACRINE]
AC50 [6]: > 30 µM

[H]/N=C(/N)N/C(=N/[H])NCCc1ccccc1 [PHENFORMIN]
AC50 [1]: > 30 µM | AC50 [2]: > 10 µM

CC(C)NCC(O)c1ccc(O)c(O)c1 (stereo not given) [ISOPROTERENOL]
AC50 [3]: > 10 µM | AC50 [2]: > 10 µM

CC(=O)O[C@]1(C(C)=O)CC[C@H]2[C@@H]3C=C(Cl)C4=CC(=O)CC[C@]4(C)[C@H]3CC[C@@]21C [CHLORMADINONE ACETATE]
AC50 [5]: > 30 µM

C=CCNc1nc(NCC=C)nc(N2CCN(C(c3ccc(F)cc3)c3ccc(F)cc3)CC2)n1 [ALMITRINE]
AC50 [6]: > 30 µM

C/N=C(\NC)NCc1ccccc1 [BETHANIDINE]
AC50 [4]: > 30 µM

Cc1cccc(N2CC(CO)OC2=O)c1 (stereo not given) [TOLOXATONE]
AC50 [6]: > 30 µM

CN1CCC(=C2c3ccccc3CCc3cccnc32)CC1 [AZATADINE]
AC50 [2]: 0.064 µM

C=C1CC[C@H](O)C/C1=C/C=C1\CCC[C@]2(C)[C@@H]([C@H](C)/C=C/[C@H](C)C(C)C)CC[C@@H]12 [ERGOCALCIFEROL]
AC50 [5]: > 30 µM

COCC1=C(C(=O)O)N2C(=O)[C@@H](NC(=O)/C(=N\OC)c3csc(N)n3)[C@H]2SC1 [CEFPODOXIME]
AC50 [6]: > 30 µM

Clc1ccc2c(N3CCN(CCCN4CCN(c5ccnc6cc(Cl)ccc56)CC4)CC3)ccnc2c1 [PIPERAQUINE]
AC50 [6]: > 30 µM

O=C(O)c1cn(C2CC2)c2cc(N3CCNCC3)c(F)cc2c1=O [CIPROFLOXACIN]
AC50 [5]: > 30 µM

CC12CC3CC(C)(C1)CC(N)(C3)C2 [MEMANTINE]
AC50 [1]: 20.1 µM

Cc1cnc(C(=O)NCCc2ccc(S(=O)(=O)NC(=O)NC3CCCCC3)cc2)cn1 [GLIPIZIDE]
AC50 [5]: > 30 µM | AC50 [1]: > 30 µM | AC50 [3]: > 10 µM

CC(N)C(O)c1ccccc1 (stereo not given) [PHENYLPROPANOLAMINE]
AC50 [1]: > 30 µM | AC50 [3]: > 10 µM | AC50 [2]: > 10 µM

CCC(C)C(CC)C(N)=O (stereo not given) [VALNOCTAMIDE]
AC50 [6]: > 30 µM

CCN(CC)C(=S)S [DITIOCARB]
AC50 [5]: > 30 µM

CCOC(=O)C1=C(C)NC(C)=C(C(=O)OC)C1c1cccc([N+](=O)[O-])c1 (stereo not given) [NITRENDIPINE]
AC50 [1]: 15.1 µM | AC50 [2]: > 10 µM

CCOC(=O)[C@H](CCc1ccccc1)N[C@@H](C)C(=O)N(CC(=O)O)C1Cc2ccccc2C1
AC50 [5]: > 30 µM
